Experimental data taken from publication PMC11428593 (Antibiotics, 2024).

System: S. aureus strain USA300LAC
Experiment: Fluorescence microscopy (DAPI/Nile Red) of membrane deformation
Assay type: cell-based, Staphylococcus aureus
From the text: Given the high lipophilic nature and membrane-compromising effects of JC-01-074, we wondered about the possibility that the alkyl chain of JC-01-074 could be incorporated into the phospholipid bilayer, thereby destabilizing the uniform packing of the membrane phospholipids and potentially resulting in “bleb formation”, as this had been reported before. To test this idea, we cultivated the S. aureus strain USA300LAC to the mid-log phase and treated the cells with the indicated concentrations of JC-01-074 and daptomycin (as a positive control), respectively. Samples were collected at 15 and 60 mins of treatment, washed twice, and resuspended in fresh PBS. Cells were then stained with 4′,6-diamidino-2-phenylindole (DAPI) and Nile Red for 10 min, respectively. DAPI is a nucleic acid stain that binds to DNA, while Nile Red is commonly used as an inner membrane stain to quantify lipids. The cells were then mounted onto a glass slide with 1% agarose and imaged at 63× magnification via inverted confocal laser scanning microscopy. […] To rule out the possibility that these blebs were transiently formed, we further imaged the cells exposed to JC-01-074 for 60 min. […] The smaller blebs formed may have extended over the incubation time, resulting in their fusion into large blebs.
Figure 5 JC-01-074 treatment rapidly induces deformations in the S. aureus plasma membrane as indicated by the white arrows. […] Cells were collected at the indicated time points and stained with DAPI (5 µg/mL) and Nile Red (5 µg/mL) for 10 min, following which cells were imaged on 1% agarose pads. Images are representatives of three biological replicates. Scale bar = 1.25 µm.
The overnight USA300LAC cultures were diluted into the TSB media to an O.D.600nm = 0.01 and incubated under shaking conditions at 37 °C until the mid-log phase (O.D.600nm = 0.3) was reached. […] The cells were then imaged on 1% agarose gel pads and via fluorescence microscopy using a Leica SP8 confocal microscope. […] Fluorescence was detected between the wavelengths of 500–560 nm, with an 8×- line averaging.

CCCCCCCCCC#Cc1cccc(O)n1 [JC-01-074]
membrane morphology after 60 min (0.5× and 1× MIC, 60 min, USA300LAC): formation of aberrant membrane blebs | lowest concentration at which bleb formation was observed (USA300LAC plasma membrane, 0.5× MIC): 8 µg/mL | earliest time at which bleb formation was observed (USA300LAC, after addition of compound): 15 min
